Tests used:
[1] = tested on: 5-LO mediated product formation; assay: 5-LO mediated product formation in intact neutrophils stimulated with A23187 (cell-based); parameters: species or system human; conditions: for activity at 1 µM / activity at 10 µM: PMNL, human neutrophils, 2.5 µM A23187, means ± SE, n = 3-6; for activity at 1 µM: remaining activity at 1 µM inhibitor, read-out: 5-LO mediated product formation in intact neutrophils (PMNL) (% of control) at 1 µM; for activity at 10 µM: remaining activity at 10 µM inhibitor, read-out: 5-LO mediated product formation in intact neutrophils (PMNL) (% of control) at 10 µM; for IC50: Neutrophil, intact human neutrophils stimulated with 2.5 µM A23187, mean ± SE, n = 3-4, read-out: Inhibition of purified 5-LO activity IC50 (µM) cell based
Protocol: (§1) Cell based and cell-free assays carried out in biological studies, immunofluorescence microscopy analysis and zymosan-induced peritonitis in mice are performed as described hereinabove (Pegola, C. and et al., British J. Pharmacology, 2014, D01:10.1111/bph.12625). In the cell based assays (intact neutrophils or monocytes), 5-LO mediated product formation is started, after pre-incubation with test compounds (or control DMSO) for 15 min. at 37 °C, with addition of Ca-ionophore A23187 (2.5 µM) to the fresh 5 x 10^6 neutrophils or monocytes suspended in 1 ml of PGC buffer (phosphate buffered saline (PBS) solution containing 1 mg ml^-1 glucose and 1mM CaCl2, pH 7.4). After the incubation for 10 min. at 37 °C, the reaction is ended with addition of 1 ml of methanol, and 30 µL 1 N HCl, 200 ng prostaglandin B1 and 500 µL PBS are added to the mixture. In cell-free assays (isolated 5-LO and cell homogenates), human recombinant 5-LO protein or 40,000g supernatant is added to 1 ml of 5-LO reaction mixture (PBS, pH 7.4, 1 mM EDTA, 1 mM ATP), and then incubated with test compounds (or control DMSO) for 10 min. at 4°C, heated to 37 °C and 2 mM CaCl2 as well as AA at certain concentrations are added. The reaction is ended as described for the cell-based assays. Resulting 5-LO mediated products are extracted and analysed by the known method of high pressure liquid chromatography (HPLC) (Pergola, C. Proc Natl. Acad. Sci. U.S.A. 2008, 105, 19881). 5-LO mediated product formation (LTB4 and all trans isomers, and 5 (S)-hydro(pero)xy-6-trans-8, 11, 14-cis-eicosatetraenoic acid, 5-H(p)ETE) is expressed as ng per 10^6 cell. Cysteinyl-LTs have not been analyzed because that the amount of C4, D4 and E4 and LTB4 oxidation products are below the detection limit.
(§2) Compounds were tested in intact human neutrophils stimulated with 2.5 µM A23187 under cell based conditions and on purified 5-LO under cell free conditions. ^aData are given as remaining activity as a percentage of control (100%) at 10 µM or 1 µM inhibitor concentrations (means ± SE, n = 3-6).
Compound 9hj inhibited 5-LO mediated product formation with IC50 of 60 nM in human neutrophils. Neutrophils are stimulated with Ca-ionophore A23187 (2.5 µM), without the addition of exogenous arachidonic acid (AA), after pre-incubation with 9hj or vehicle (0.1 % DMSO). 100% controls correspond to 275.7 ng mL^-1 of 5-LO mediated products (Figure 1).
100% controls correspond to 328.97 ng mL^-1 of 5-LO mediated products.

purified 5-LO [2] = target: T1, purified 5-LO (Homo sapiens, UniProt P09917); assay: Purified / human recombinant 5-LO activity (cell-free); type: biochemical; conditions: purified 5-LO under cell free conditions; mean ± SE, n = 3-4; read-out: Inhibition of purified 5-LO activity IC50 (µM) cell-free
T1 sequence (P09917 1-674): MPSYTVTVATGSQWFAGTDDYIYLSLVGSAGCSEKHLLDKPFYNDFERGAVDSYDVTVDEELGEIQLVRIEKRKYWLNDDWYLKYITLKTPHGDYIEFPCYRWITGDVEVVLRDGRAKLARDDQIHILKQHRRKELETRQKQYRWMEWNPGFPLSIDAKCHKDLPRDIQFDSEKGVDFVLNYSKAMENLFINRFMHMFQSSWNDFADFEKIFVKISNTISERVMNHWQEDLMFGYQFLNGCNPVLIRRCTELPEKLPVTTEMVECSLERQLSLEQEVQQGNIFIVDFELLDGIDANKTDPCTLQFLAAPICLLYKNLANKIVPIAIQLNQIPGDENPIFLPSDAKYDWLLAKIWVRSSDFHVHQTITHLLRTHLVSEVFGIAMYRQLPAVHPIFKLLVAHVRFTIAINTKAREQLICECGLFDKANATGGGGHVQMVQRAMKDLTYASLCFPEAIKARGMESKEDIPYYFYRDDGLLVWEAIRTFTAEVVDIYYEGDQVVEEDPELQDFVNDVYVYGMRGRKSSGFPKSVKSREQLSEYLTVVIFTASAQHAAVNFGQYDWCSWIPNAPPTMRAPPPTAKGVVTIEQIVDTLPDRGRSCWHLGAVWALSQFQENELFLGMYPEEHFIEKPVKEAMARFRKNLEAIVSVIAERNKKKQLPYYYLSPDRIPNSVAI
Protocol: as §1, §2
9hj was added 15 min before addition of 2 mM Ca^2+ plus 3 µM, 10 µM and 30 µM AA. 100% controls correspond to 200.35 ng mL^-1 for 3 µM AA, 514.36 ng mL^-1 for 10 µM AA and 537.73 ng mL^-1 for 30 µM AA.

purified 5-LO [3] = target: T1, purified 5-LO; assay: as above; type: biochemical; conditions: remaining 5-LO activity (percentage of uninhibited control) at 30 µM test compound

Row | SMILES | activity at 1 µM [1] [%] | activity at 10 µM [1] [%] | IC50 (purified 5-LO [2]) [µM] | IC50 [1] [µM] | remaining activity at 30 µM (purified 5-LO [3]) [%]
1 | CCOC(=O)c1noc(-c2ccc(OCc3ccccc3C)cc2)c1-c1ccc(Cl)cc1 [Compound 7aj, Ethyl 4-(4-chlorophenyl)-5-(4-((2-methylbenzyl)oxy)phenyl)isoxazole-3-carboxylate] | 85.2 ± 0.7 | 71.9 ± 10.3 |  |  | 
2 | CCOC(=O)c1noc(-c2ccc(OCc3cccc(F)c3)cc2)c1-c1ccc(Cl)cc1 [Compound 7bj, Ethyl 4-(4-chlorophenyl)-5-(4-((3-fluorobenzyl)oxy)phenyl)isoxazole-3-carboxylate] | 66.1 ± 14.3 | 55.3 ± 12.1 |  |  | 
3 | CCOC(=O)c1noc(-c2ccc(OCc3ccc(C)cc3)cc2)c1-c1ccc(Cl)cc1 [Compound 7cj, Ethyl 4-(4-chlorophenyl)-5-(4-((4-methylbenzyl)oxy)phenyl)isoxazole-3-carboxylate] | 78.3 ± 16.2 | 61.4 ± 12.4 |  |  | 
4 | CCOC(=O)c1noc(-c2ccc(OCc3ccccc3C)cc2)c1-c1cccc(Cl)c1 [Compound 8aj, Ethyl 4-(3-chlorophenyl)-5-(4-((2-methylbenzyl)oxy)phenyl)isoxazole-3-carboxylate] | 88 ± 10.2 | 83.4 ± 16.2 |  |  | 
5 | CCOC(=O)c1noc(-c2ccc(OCc3cccc(F)c3)cc2)c1-c1cccc(Cl)c1 [Compound 8bj, Ethyl 4-(3-chlorophenyl)-5-(4-((3-fluorobenzyl)oxy)phenyl)isoxazole-3-carboxylate] | 90.6 ± 11.5 | 80.8 ± 11.8 |  |  | 
6 | Cc1ccccc1COc1ccc(-c2onc(C(=O)O)c2-c2ccc(Cl)cc2)cc1 [Compound 9aj, 4-(4-Chlorophenyl)-5-(4-((2-methylbenzyl)oxy)phenyl)isoxazole-3-carboxylic acid] | 74.5 ± 8.6 | 13.1 ± 3.9 | 0.48 ± 0.03 | 1.7 ± 0.47 | 
7 | O=C(O)c1noc(-c2ccc(OCc3cccc(F)c3)cc2)c1-c1ccc(Cl)cc1 [Compound 9bj, 4-(4-Chlorophenyl)-5-(4-((3-fluorobenzyl)oxy)phenyl)isoxazole-3-carboxylic acid] | 52.3 ± 8.3 | 19.6 ± 9.5 | 0.38 ± 0.04 | 1.29 ± 0.61 | 
8 | Cc1ccc(COc2ccc(-c3onc(C(=O)O)c3-c3ccc(Cl)cc3)cc2)cc1 [Compound 9cj, 4-(4-Chlorophenyl)-5-(4-((4-methylbenzyl)oxy)phenyl)isoxazole-3-carboxylic acid] | 55.8 ± 4.31 | 15.7 ± 4.53 | 5.94 ± 0.36 | 1.4 ± 0.09 | 
9 | Cc1ccc(COc2ccc(-c3onc(C(=O)O)c3-c3ccc(Cl)cc3)c(C)c2)cc1 [Compound 9ck, 4-(4-Chlorophenyl)-5-(2-methyl-4-((4-methylbenzyl)oxy)phenyl)isoxazole-3-carboxylic acid] | 51 ± 6.68 | 2.26 ± 1.86 | > 30 | 1.2 ± 0.11 | 53
10 | N#Cc1cccc(COc2ccc(-c3onc(C(=O)O)c3-c3ccc(Cl)cc3)cc2)c1 [Compound 9dj, 4-(4-Chlorophenyl)-5-(4-((3-cyanobenzyl)oxy)phenyl)isoxazole-3-carboxylic acid] | 70 ± 9.14 | 6.91 ± 3.92 | 16.3 ± 5.95 | 4.13 ± 0.33 | 
11 | Cc1cc(OCc2cccc(C#N)c2)ccc1-c1onc(C(=O)O)c1-c1ccc(Cl)cc1 [Compound 9dk, 4-(4-Chlorophenyl)-5-(4-((3-cyanobenzyl)oxy)-2-methylphenyl)isoxazole-3-carboxylic acid] | 77.4 ± 13.2 | 0.42 ± 0.21 | 5.01 ± 1.38 | 2.36 ± 0.32 | 
12 | O=C(O)c1noc(-c2ccc(OCc3ccccc3Cl)cc2)c1-c1ccc(Cl)cc1 [Compound 9ej, 5-(4-((2-chlorobenzyl)oxy)phenyl)-4-(4-chlorophenyl)isoxazole-3-carboxylic acid] | 65.7 ± 5.9 | 5.1 ± 1.46 | 6.11 ± 0.9 | 1.2 ± 0.23 | 
13 | Cc1cc(OCc2ccccc2Cl)ccc1-c1onc(C(=O)O)c1-c1ccc(Cl)cc1 [Compound 9ek, 5-(4-((2-Chlorobenzyl)oxy)-2-methylphenyl)-4-(4-chlorophenyl)isoxazole-3-carboxylic acid] | 54.9 ± 6.46 | 2.86 ± 2.59 | > 30 | 1.45 ± 0.09 | 51
14 | O=C(O)c1noc(-c2ccc(OCc3ccccc3C(F)(F)F)cc2)c1-c1ccc(Cl)cc1 [Compound 9fj, 4-(4-Chlorophenyl)-5-(4-((2-(trifluoromethyl)benzyl)oxy)phenyl)isoxazole-3-carboxylic acid] | 52.8 ± 5.94 | 5.5 ± 2.21 | 6.04 ± 0.72 | 0.77 ± 0.19 | 
15 | Cc1cc(OCc2ccccc2C(F)(F)F)ccc1-c1onc(C(=O)O)c1-c1ccc(Cl)cc1 [Compound 9fk, 4-(4-Chlorophenyl)-5-(2-methyl-4-((2-(trifluoromethyl)benzyl)oxy)phenyl)isoxazole-3-carboxylic acid] | 44 ± 10.3 | 3.48 ± 3.05 | > 30 | 0.82 ± 0.17 | 62
16 | O=C(O)c1noc(-c2ccc(OCc3ccccn3)cc2)c1-c1ccc(Cl)cc1 [Compound 9gj, 4-(4-Chlorophenyl)-5-(4-(pyridin-2-ylmethoxy)phenyl)isoxazole-3-carboxylic acid] | 82.1 ± 15.2 | 21.3 ± 8.34 | 7.39 ± 2.45 | 4.09 ± 0.12 | 
17 | Cc1ccccc1COc1ccc(-c2onc(C(=O)O)c2-c2cccc(Cl)c2)cc1 [Compound 10aj, 4-(3-Chlorophenyl)-5-(4-((2-methylbenzyl)oxy)phenyl)isoxazole-3-carboxylic acid] | 84.5 ± 9.1 | 0.7 ± 0.7 | 0.5 ± 0.03 | 2.08 ± 0.33 | 
18 | O=C(O)c1noc(-c2ccc(OCc3cccc(F)c3)cc2)c1-c1cccc(Cl)c1 [Compound 10bj, 4-(3-Chlorophenyl)-5-(4-((3-fluorobenzyl)oxy)phenyl)isoxazole-3-carboxylic acid] | 66.7 ± 8.5 | 8.4 ± 5.1 | 0.38 ± 0.03 | 1.64 ± 0.11 | 
19 | Cc1cc(OCc2cccc(F)c2)ccc1-c1onc(C(=O)O)c1-c1cccc(Cl)c1 [Compound 10bk, 4-(3-Chlorophenyl)-5-(4-((3-fluorobenzyl)oxy)-2-methylphenyl)isoxazole-3-carboxylic acid] | 48.6 ± 7.9 | 9.8 ± 3.6 | 1.12 ± 0.14 | 0.82 ± 0.19 | 

Source: patent EP2949653A1, “ISOXAZOLE DERIVATIVES AS LEUKOTRIENE BIOSYNTHESIS INHIBITORS” (Banoglu, Erden, priority 2014, dated 2015)
